From US8309550B2, “Kinase inhibitors and their use as pharmaceutical agents” (Shanghai Genomics, Inc., priority 2011, dated 2012) come the findings set out here.

Like-named read-outs stand apart in the source and are kept apart here.

Common to all, as to type: cell-based
For one assay, the system named is A549 cells. The experiment in a line: 72 h MTT cytotoxicity assay A549. The following applies: Homo sapiens; A549, 72 hrs. The essentials:
(§1)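 Cells were seeded at 4000 per well overnight, then given ½ dilution series in duplicate (0.025% final DMSO) for 72 hrs at 37° C. MTT was added for 4 hr, the dye was solubilised in DMSO and absorbance read at 562 nm. IC50 came from sigmoid curve fitting.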
(In general: Formazan colour is commonly taken as a measure of viable cells.)

The next assay deals with SK-MEL-28-luc. The experiment in a line: 72 h MTT cytotoxicity assay SK-MEL-28-luc. To be noted: Homo sapiens. A digest of the protocol: as §1
The next assay deals with HT-29. The assay is described as follows: 72 h MTT cell viability HT-29. To be noted: Homo sapiens, read-out: Cell Viability IC50 HT-29. The source says:
(§2) MIT cytotoxicity assay. The compounds of the invention were subjected to a standard cellular proliferation assay using human cell lines. HeLa cells (Human cervix adenocarcinoma cell line, ATCC NO, CCL-2); A549 cells (Human lung carcinoma cells line, ATCC NO, CCL-185); U2OS cells (Human osteosarcoma cell line, ATCC NO, HTB-96); Eca-109 cells (Human esophageal carcinoma cell line); HepG2 (Human hepatocellular liver carcinoma cell line, ATCC NO, HB-8065); K562 cells (Human chronic myelogenous leukemia cell line, ATCC NO, CCL-243); SK-MEL-28 (Human malignant melanoma cell line, ATCC NO, HTB-72); Molt-4 (Human acute lymphoblastic leukemia cell line, ATCC NO, CRL-1582); H460 (Human large cell lung cancer cell line, ATCC NO, HTB-177); MDA-MB-231 (Human breast adenocarcinoma cell line, ATCC NO, HTB-26); MCF7 (Human breast adenocarcinoma cell line, ATCC NO, HTB-22); ACHN (Human renal cell adenocarcinoma cell line, ATCC NO, CRL-1611); PC-3M (Human prostate adenocarcinoma cell line, ATCC NO CRL-1435); HL60 (Human acute promyelocytic leukemia cell line, ATCC NO, CCL-240); THP-1 (Human acute monocytic leukemia, ATCC NO, TIB-202); Jurkat (Human acute T cell leukemia cell line, ATCC NO, CRL-2063); HCT-116 (Human colorectal carcinoma cell line, ATCC NO, CCL-247); HT-29 (Human colorectal adenocarcinoma cell line, ATCC NO, HTB-38™); WI-38 (Human normal lung cell line, ATCC NO, CCL-75); MRC-5 (Human normal lung cell line, ATCC NO, CCL-171).
(§3) HepG2, MDA-MB-231, WI-38 and MRC-5 cells were obtained from Shanghai Institute of Cell Biology, Chinese Academy of Sciences (Shanghai 200031, China). A549, HeLa, K562, MCF7, ACHN, H460, U2OS, Eca-109, MCF7, HL60, THP-1, Jurkat, HCT-116, HT-29, PC-3M, SK-MEL-28, Molt-4, H460 and […] cells were purchased from ATCC (American Type Culture Collection, USA).
(§4) Standard 72 h MTT (thiazolye blue; 3-[4,5-dimethylthiazol-2-yl]-2,5-diphenyltetrazolium bromide) assays were performed. Briefly, the cell lines used in this study were recovered and cultured according to the conditions recommended. 4000 cells per well were seeded into 96-well plates according to doubling time and incubated overnight at 37° C. Compounds were prepared in DMSO and a ½ dilution series in 100 μl cell culture media, added to cells (in duplicates) with the final DMSO concentration of 0.025%, and incubated for 72 hrs at 37° C. MTT solution (5 mg/ml) was added at 10 μl per well and incubated in the dark at 37° C. for 4 hr. Culture medium and MTT solution was removed. MTT dye was solubilised with 100 μl per well of DMSO with agitation. Absorbance was read at 562 nm and data analyzed using Sigmoid curve-fitting software Origin 6.0 (MicroCal, LLC, USA) to determine IC50 value.

In another assay the test system is K562 cells. The experiment in a line: 72 h MTT cytotoxicity assay K562. The following applies: Homo sapiens; K562, 72 hrs. The essentials: as §1
For a further assay, the system named is HL-60. The assay is described as follows: 72 h MTT cell viability HL-60. To be noted: Homo sapiens.
From the text: as §2, §3, §4

For the next assay, the system named is MRC-5. The assay is described as follows: 72 h MTT cell viability MRC-5 (normal lung). To be noted: Homo sapiens, MRC5; MRC-5, normal lung cell line; read-out: Cell Viability IC50 MRC-5.
From the text: as §2, §3, §4

The next assay deals with U2OS cells. The experiment in a line: 72 h MTT cytotoxicity assay U2OS. The following applies: Homo sapiens. The essentials:
as §1

For the next assay, the system named is THP-1. The assay is described as follows: 72 h MTT cell viability THP-1. To be noted: Homo sapiens, THP-1; read-out: Cell Viability IC50 THP-1.
From the text: as §2, §3, §4

A further assay relates to Jurkat. The assay is described as follows: 72 h MTT cell viability Jurkat. The following applies: Homo sapiens.
From the text: as §2, §3, §4

In a further assay the test system is HeLa cells. The experiment in a line: 72 h MTT cytotoxicity assay HeLa. The following applies: Homo sapiens. A digest of the protocol:
as §1

The next assay concerns WI-38. The experiment in a line: 72 h MTT cell viability WI-38 (normal lung). To be noted: Homo sapiens; WI-38, normal lung cell line. The essentials:
as §1

A further assay relates to MCF7. The experiment in a line: 72 h MTT cytotoxicity assay MCF7. To be noted: Homo sapiens; MCF7, 72 hrs. A digest of the protocol:
as §1

The test system of another assay is ACHN-luc. The assay is described as follows: 72 h MTT cell viability ACHN-luc. The following applies: Homo sapiens. The essentials:
as §1

The subject of a further assay is Molt-4-luc. The experiment in a line: 72 h MTT cytotoxicity assay Molt-4-luc. The following applies: Homo sapiens. A digest of the protocol: as §1
The test system of another assay is HepG2. The assay is described as follows: 72 h MTT cytotoxicity assay HepG2. The following applies: Homo sapiens; HepG2, 72 hrs. The essentials: as §1
The subject of a further assay is PC-3M-luc. The experiment in a line: 72 h MTT cell viability PC-3M-luc. The following applies: Homo sapiens.
From the text: as §2, §3, §4

Another assay deals with HCT 116. The experiment in a line: 72 h MTT cell viability HCT 116. The following applies: Homo sapiens.
From the text: as §2, §3, §4

For a further assay, the system named is Eca-109 cells. The assay is described as follows: 72 h MTT cytotoxicity assay Eca-109. To be noted: Homo sapiens; Eca-109, 72 hrs. The essentials: as §1
For a further assay, the system named is MDA-MB-231-luc. The experiment in a line: 72 h MTT cell viability MDA-MB-231-luc. The following applies: Homo sapiens. The essentials:
as §1

Where [1] appears, read: read-out: Cell Viability IC50 Jurkat.
Where [2] appears, read: read-out: Cell Viability IC50 HCT 116.

Regarding `CCCn1cc(-c2ccnc(Nc3ccc(C)c(S(=O)(=O)N4CCOCC4)c3)n2)c2cccnc21` [Compound 24, N-(4-Methyl-3-(morpholinosulfonyl)phenyl)-4-(1-propyl-1H-pyrrolo[2,3-b]pyridin-3-yl)pyrimidin-2-amine], the IC50 in the assay on A549 cells is 3690 nM; in the assay on SK-MEL-28-luc, 3050 nM; with HT-29, 1350 nM; in the assay with K562 cells it was 3680 nM; in the assay on HL-60, 3490 nM; in the assay with MRC-5 it was 3880 nM. Moreover, the IC50 was 3300 nM in the assay on U2OS cells; 5250 nM with THP-1; 1790 nM in the assay on Jurkat (setting [1]); 1600 nM in the assay with HeLa cells; over 10000 nM in the assay on WI-38; 3480 nM in the assay on MCF7. Moreover, the IC50 in the assay with ACHN-luc turned out to be 5580 nM; with Molt-4-luc it was 4510 nM; in the assay with HepG2, 1320 nM; with PC-3M-luc, 5020 nM; in the assay with HCT 116 (setting [2]), 3430 nM; in the assay on Eca-109 cells, 5300 nM.

Regarding `CCn1cc(-c2ccnc(Nc3cccc(S(N)(=O)=O)c3)n2)c2cccnc21` [Compound 18, 3-(4-(1-Ethyl-1H-pyrrolo[2,3-b]pyridin-3-yl)pyrimidin-2-ylamino)benzenesulfonamide], the IC50 with A549 cells came out at 1210 nM; with SK-MEL-28-luc it was 8590 nM; in the assay on HT-29, 810 nM; with K562 cells, 6690 nM; in the assay with HL-60 it was 1850 nM; in the assay on MRC-5, 13300 nM. For the same compound, the IC50 in the assay on U2OS cells was found to be 3070 nM; in the assay on THP-1, 5370 nM; in the assay on Jurkat (Table III, read-out: Cellular effect in mammalian cells IC50 Jurkat) it was 1310 nM; with HeLa cells it was 1700 nM; with WI-38, 11100 nM; in the assay with MDA-MB-231-luc it was 3300 nM. Also, the IC50 with MCF7 is 710 nM; in the assay with ACHN-luc, 2980 nM; with Molt-4-luc, 1050 nM; in the assay on HepG2, 680 nM; in the assay on PC-3M-luc, 3550 nM; with HCT 116 (HCT116, Table III, read-out: Cellular effect in mammalian cells IC50 HCT116) it was 2100 nM. The compound also gave an IC50 in the assay on Eca-109 cells of 11700 nM.

With `CCCn1cc(-c2ccnc(Nc3cccc(S(N)(=O)=O)c3)n2)c2ccnc(Cl)c21` [Compound 96, 3-(4-(7-chloro-1-propyl-1H-pyrrolo[2,3-c]pyridin-3-yl)pyrimidin-2-ylamino)benzenesulfonamide], the IC50 in the assay on A549 cells came to 120 nM; in the assay with SK-MEL-28-luc it was 260 nM; in the assay with HT-29 it was 480 nM; in the assay with K562 cells, 220 nM; in the assay on HL-60, 370 nM; with MRC-5 it was 890 nM. The IC50 in the assay with U2OS cells was 230 nM; with THP-1 it was 360 nM; in the assay on Jurkat (setting [1]) it was 220 nM; with HeLa cells, 150 nM; with WI-38 it was over 10000 nM; in the assay on MCF7, 250 nM. The IC50 was 340 nM in the assay with ACHN-luc; 220 nM in the assay with Molt-4-luc; 250 nM in the assay with HepG2; 480 nM in the assay with PC-3M-luc; 320 nM in the assay with HCT 116 (setting [2]); over 10000 nM with Eca-109 cells.

As for `CCn1cc(-c2ccnc(Nc3cccc(C#N)c3)n2)c2cccnc21` [Compound 20, 3-(4-(1-Ethyl-1H-pyrrolo[2,3-b]pyridin-3-yl)pyrimidin-2-ylamino)benzonitrile], the IC50 was found to be 3070 nM in the assay with A549 cells; 7790 nM in the assay on SK-MEL-28-luc; 2930 nM with HT-29; 6110 nM with K562 cells; 3410 nM in the assay on HL-60; 15100 nM in the assay with MRC-5. The IC50 in the assay with U2OS cells was over 10000 nM; with THP-1, 2080 nM; with Jurkat (setting [1]) it was 3420 nM; in the assay on HeLa cells it was 5550 nM; in the assay on MDA-MB-231-luc, 4680 nM; in the assay on MCF7, over 10000 nM. The IC50 in the assay on ACHN-luc is over 10000 nM; in the assay on Molt-4-luc it was 3430 nM; with HepG2 it was 1810 nM; in the assay with PC-3M-luc it was over 10000 nM; in the assay with HCT 116 (setting [2]), over 10000 nM; in the assay with Eca-109 cells, over 10000 nM.

Consider `CCCn1cc(-c2ccnc(Nc3ccc(S(N)(=O)=O)cc3)n2)c2ccncc21` [Compound 112, 4-(4-(1-Propyl-1H-pyrrolo[2,3-c]pyridin-3-yl)pyrimidin-2-ylamino)benzenesulfonamide], for which the IC50 in the assay on A549 cells is 30 nM; in the assay on SK-MEL-28-luc, 3.8 nM; with HT-29, 50 nM; with K562 cells it was 1.1 nM; in the assay with HL-60, 8 nM; in the assay on MRC-5, over 10000 nM. In addition, the IC50 was 10 nM in the assay on U2OS cells; 4 nM with THP-1; 2.5 nM with Jurkat (setting [1]); 0.4 nM with HeLa cells; over 10000 nM in the assay on WI-38; 1.4 nM in the assay with MCF7. Moreover, the IC50 in the assay with ACHN-luc was determined as 37 nM; in the assay on Molt-4-luc it was 20 nM; in the assay on HepG2, 470 nM; with PC-3M-luc it was 27 nM; in the assay on HCT 116 (setting [2]), 5 nM; in the assay on Eca-109 cells it was 10 nM.

One may read the IC50 as the concentration that gives 50% inhibition.
